In patent US12391646B2, “Using adiponectin receptor agonists to treat inflammation and bone diseases in diabetes” (Trustees of Tufts College, priority 2020, dated 2025):

Legend:
[1] = test system: LPS-stimulated bone marrow-derived macrophages (BMMs); assay: qRT-PCR of IL-6 and IL-1β mRNA in LPS-stimulated BMMs; type: cell-based, C57BL/6J mice; settings: AdipoAI 5 μM compared with compound 5 (5 μM) and APR (20 μM)
[2] = test system: mice with LPS-induced endotoxemia; assay: LPS-induced endotoxemia in WT mice; type: in vivo, C57BL/6 mice
Procedure: FIG. 4 AdipoAI protects against LPS-induced endotoxemia. Endotoxemia was induced in WT mice by intraperitoneal injection with LPS ([…]), and control littermates were administered with equivalent volumes of PBS. APR or AdipoAI were orally gavaged into mice for 24 hours before LPS challenge and control animals were administered with equivalent volumes of DMSO. (a) mRNA expression levels of pro-inflammatory cytokines in lung, spleen, liver and WAT were measured by qRT-PCR and normalized with GAPDH mRNA levels. Data are shown as mean±SEM (n=6). (b) Survival curve of mice with endotoxemia (n=12). (c) Serum levels of IL-6 and IL-1β were measured by ELISA. Data are expressed as mean±SEM (n=6). (d) Histopathology for lung, spleen, liver and WAT tissues isolated from APR- or AdipoAI-treated mice 24 h before LPS challenge (n=6). Upper panel: Hematoxylin and cosin staining; Lower panel: Immunohistochemical staining for macrophage marker F4/80. Red arrow indicates F4/80 positive cells. One-way ANOVA test for multiple-group comparisons, * vs. DMSO+PBS group, # vs. DMSO+LPS group. */#P<0.05, significant differences between each indicated group. ns, not significant.
The Ethics Committee on the Use and Care of Animals at Tufts University approved the study protocol (Boston, MA, USA). The animals received humane care according to the criteria outlined in the Guide for the Care and Use of Laboratory Animals prepared by the National Academy of Sciences and published by the National Institutes of Health. All experiments involving animals or animal tissue are reported in compliance with the guidelines of ARRIVE and BJP (Kilkenny et al., 2010; McGrath and Lilley, 2015). Experimental protocols and design adhere to BJP guidelines (Curtis et al., 2015). Wild-type (WT, C57BL/6J, Jax #000664), DIO (Jax #380050), and APN KO (Jax #008195) mice were purchased from the Jackson Laboratory. The DIO mice were fed with a high-fat diet (containing 60% kcal from fat; Jackson Laboratory) at 6 weeks of age and later. The WT mice were fed with ordinary diet as normal chow (NC)-fed mice, and APN KO mice were maintained and fed with an NC diet as previously described (Tu et al., 2011). For the LPS-induced endotoxemia model, male C57BL/6 mice aged 8 weeks received oral gavage with APR (50 mg/kg body weight) or AdipoAI (25 mg/kg body weight) for 24 h before by LPS (20 mg/kg body weight) treatment which was administered intraperitoneally whereas control animals were treated with equivalent volumes of normal PBS. Mouse survival in each group was monitored and recorded up to 84 h. All mice were killed at 1 h for detection of activation of inflammatory genes, at 6 h for determination of inflammatory factors in serum, and at 24 h for histological evaluation. Animal data were excluded from experiments based on pre-established criteria of visible abnormal tissue structure during sample harvest or other health issues, including fighting wounds.

[3] = test system: LPS-induced BMMs; assay: ELISA of IL-6 and IL-1β in supernatants of LPS-induced BMMs; type: cell-based, C57BL/6J mice; settings: AdipoAI 5 μM 24 h then LPS 6 h
Procedure: FIG. 2 AdipoAI suppresses LPS-stimulated inflammatory responses in macrophages. (a) Raw264.7 cells or (b) BMMs were pretreated with APR (20 μM) or AdipoAI (5 μM) for 24 h followed by incubation with LPS (100 ng/mL) for additional 6 h for the measurement of IL-6 and IL-1β in supernatants by ELISA. Data were expressed as the mean±SEM at five biological independent experiments. One-way ANOVA test for multiple-group comparisons, * vs. LPS group, *P<0.05, significant differences between each indicated group. (c) PEMs were isolated from C57BL/6J mice (n=5 mice/group) were injected i.p. with ImL 4% thioglycolate solution or AdipoAI (25 mg/kg) for the measurement of IL-6 and IL-1β. The amounts of IL-6 and IL-1β in supernatant were measured by ELISA. Data were expressed as the mean±SEM (n=5). Two-tailed Student's t-test for two groups, *P<0.05, significant differences between each indicated group. (d-f) Impact of AdipoAI on basal (d) and LPS-induced expression of an array of proinflammatory cytokines, chemokines, and receptors (e,f) in Raw264.7 cells (4 groups and 3 biological replicates/group). Data analyses were performed according to the manufacturer's instructions with their web-based software package (www.qiagen.com/us/shop/genes-and-pathways/data-analysis-center overview-page/). […]

## COc1ccc(CN2CCC(NC(=O)COc3ccc(C(=O)c4ccc(Cl)cc4)cc3)CC2)cc1 [Compound 3]
[1]
  inhibition of LPS-stimulated IL-6 and IL-1β expression in BMMs: strongest inhibitory effects
[2]; 6 h post-LPS administration
  serum levels of IL-6 and IL-1β: reduced serum levels of pro-inflammatory cytokines IL-6 and IL-1β
[2]; 24 h, LPS-challenged mice
  lung histopathology: fewer lung lesions and decreased inflammatory cell infiltration
[2]; 84 h post-LPS challenge, vehicle 12.5%
  survival rate: 40%
[2]; LPS-challenged mice
  LPS-induced spleen, liver and WAT injury and inflammatory responses: alleviated
[2]; LPS-challenged mice, qPCR and IHC
  c-Maf mRNA and protein levels in lung, spleen, liver and WAT: decreased
[2]; LPS-induced endotoxemia mice (sentence also covers DIO mice)
  expression of TNF-α in tissues: did not inhibit the expression of TNF-α
[2]; oral gavage 24 h before LPS challenge
  mRNA levels of proinflammatory genes in lung, spleen, WAT, liver: decreased mRNA levels of proinflammatory genes
[3]
  IL-6 and IL-1β protein levels (ELISA): decreased IL-6 and IL-1β protein levels
